Experimental data reported in patent publication US9932637B2, “Genetic polymorphisms associated with cardiovascular disorders and drug response, methods of detection and uses thereof” (CELERA CORPORATION, priority 2003, dated 2018).

System: patients with prior myocardial infarction (CARE study)
Experiment: CARE: association of SNPs with pravastatin treatment in cardiovascular events prevention (logistic regression, odds ratio pravastatin vs placebo by genotype; Table 8)
Type: in vivo, human
Settings: All Patients; for Coronary Artery Bypass or Revascularization, n/total (%) / Total Coronary Heart Disease Events, n/total (%) / Fatal/Non-fatal Atherosclerotic CV Disease, n/total (%) / Hosp. for Cardiovascular Disease, n/total (%) / Total Cardiovascular Disease Events, n/total (%) / Fatal/Non-fatal MI (def & prob), n/total (%) / Fatal CHD/Definite Non-fatal MI, n/total (%) / Non-fatal MI (def & prob), n/total (%): Prava
Excerpt: In order to identify genetic markers associated with acute coronary events (e.g. MI, stroke, unstable angina, congestive heart failure, etc.) or response to statin treatment for the prevention of coronary events, samples from the Cholesterol and Recurrent Events (CARE) study (a randomized multicentral double-blinded trial on secondary prevention of acute coronary events with pravastatin) (Sacks et al., 1991, Am. J. Cardiol. 68: 1436-1446) were genotyped. A well-documented myocardial infarction (MI) was one of the enrollment criteria for entry into the CARE study. Patients were enrolled in the CARE trial from 80 participating study centers. […] Patients were randomized to receive either 40 mg of pravastatin once daily or a matching placebo. The primary endpoint of the trial was death from coronary heart disease and the median duration of follow-up was 5.0 years (range, 4.0 to 6.2 years). […] Secondary endpoints of other related cardiovascular or metabolic disease events, and changes in clinical variables were also recorded in pravastatin-treated and placebo groups. All individuals included in the study had signed a written informed consent form and the study protocol was approved by the respective Institutional Review Boards (IRBs).
For genotyping SNPs in CARE patient samples, DNA was extracted from blood samples using conventional DNA extraction methods such as the QIA-amp kit from Qiagen. Genotypes were obtained on an ABI PRISM® 7900HT Sequence Detection PCR system (Applied Biosystems, Foster City, Calif.) by kinetic allele-specific PCR, similar to the method described by Germer et al. (Germer S., Holland M. J., Higuchi R. 2000, Genome Res. 10: 258-266).
Statistical analysis for association of SNPs with pravastatin treatment in cardiovascular events prevention (Table 8) was carried out using an overall logistic regression model that included an intercept, a parameter for the effect of a genotype containing two rare alleles versus a genotype containing no rare alleles, a parameter for the effect of a genotype containing one rare allele versus a genotype containing no rare alleles, a parameter for the effect of use of pravastatin versus the use of placebo, and parameters for the interaction effects between SNP genotypes and pravastatin use. The test of the overall model is a chi-square test with two degrees of freedom for analyses containing all three genotypes, and one degree of freedom for analyses containing two genotypes.
Effect sizes were estimated through odds ratios (pravastatin group versus placebo) for carriers of each genotype (groups of 0, 1, and 2 minor allele carriers). The effect was considered to be significant if p-value for testing whether any of the interactions between SNP genotypes and pravastatin use were <0.05. […] Odds ratios less than one indicate that the specific SNP allele has a protective effect and odds ratios greater than one indicate that the specific SNP allele has an adverse effect.

[1] = HLA-DPB1 hCV8851085, Coronary Artery Bypass or Revascularization
[2] = HLA-DPB1 hCV8851085, Fatal/Non-fatal Atherosclerotic CV Disease
[3] = HLA-DPB1 hCV8851085, Fatal/Non-fatal MI (def & prob)
[4] = HLA-DPB1 hCV8851085, Hosp. for Cardiovascular Disease
[5] = HLA-DPB1 hCV8851085, Total Cardiovascular Disease Events
[6] = HLA-DPB1 hCV8851085, Total Coronary Heart Disease Events
[7] = HLA-DPB1 hCV25651174, 2 Rare Alleles, n/total 20/144

CC[C@H](C)C(=O)O[C@H]1C[C@H](O)C=C2C=C[C@H](C)[C@H](CC[C@@H](O)C[C@@H](O)CC(=O)O)[C@H]21 [pravastatin]
Coronary Artery Bypass or Revascularization, n/total (%) (HLA-DPB1 hCV8851085, 0 Rare Alleles, n/total 129/919): (14.0%)
Total Coronary Heart Disease Events, n/total (%) (HLA-DPB1 hCV8851085, 0 Rare Alleles, n/total 263/919): (28.6%)
Fatal/Non-fatal Atherosclerotic CV Disease, n/total (%) (HLA-DPB1 hCV8851085, 0 Rare Alleles, n/total 301/919): (32.8%)
Hosp. for Cardiovascular Disease, n/total (%) (HLA-DPB1 hCV8851085, 0 Rare Alleles, n/total 363/919): (39.5%)
Total Cardiovascular Disease Events, n/total (%) (HLA-DPB1 hCV8851085, 0 Rare Alleles, n/total 374/919): (40.7%)
Fatal/Non-fatal MI (def & prob), n/total (%) (HLA-DPB1 hCV8851085, 1 Rare Allele, n/total 53/521): (10.2%)
Coronary Artery Bypass or Revascularization, n/total (%) (HLA-DPB1 hCV8851085, 1 Rare Allele, n/total 72/521): (13.8%)
Total Coronary Heart Disease Events, n/total (%) (HLA-DPB1 hCV8851085, 1 Rare Allele, n/total 151/521): (29.0%)
Fatal/Non-fatal Atherosclerotic CV Disease, n/total (%) (HLA-DPB1 hCV8851085, 1 Rare Allele, n/total 174/521): (33.4%)
Hosp. for Cardiovascular Disease, n/total (%) (HLA-DPB1 hCV8851085, 1 Rare Allele, n/total 209/521): (40.1%)
Total Cardiovascular Disease Events, n/total (%) (HLA-DPB1 hCV8851085, 1 Rare Allele, n/total 214/521): (41.1%)
Fatal/Non-fatal MI (def & prob), n/total (%) (HLA-DPB1 hCV8851085, 2 Rare Alleles, n/total 11/73): (15.1%)
Coronary Artery Bypass or Revascularization, n/total (%) (HLA-DPB1 hCV8851085, 2 Rare Alleles, n/total 17/73): (23.3%)
Total Coronary Heart Disease Events, n/total (%) (HLA-DPB1 hCV8851085, 2 Rare Alleles, n/total 26/73): (35.6%)
Fatal/Non-fatal Atherosclerotic CV Disease, n/total (%) (HLA-DPB1 hCV8851085, 2 Rare Alleles, n/total 29/73): (39.7%)
Hosp. for Cardiovascular Disease, n/total (%) (HLA-DPB1 hCV8851085, 2 Rare Alleles, n/total 33/73): (45.2%)
Total Cardiovascular Disease Events, n/total (%) (HLA-DPB1 hCV8851085, 2 Rare Alleles, n/total 35/73): (47.9%)
Prava vs. Placebo Odds Ratio, 0 Rare Alleles [1]: 0.68
Prava vs. Placebo Odds Ratio, 1 Rare Alleles [1]: 0.60
Prava vs. Placebo Odds Ratio, 2 Rare Alleles [1]: 3.54
Prava vs. Placebo Odds Ratio, 0 Rare Alleles [2]: 0.70
Prava vs. Placebo Odds Ratio, 1 Rare Alleles [2]: 0.79
Prava vs. Placebo Odds Ratio, 2 Rare Alleles [2]: 2.12
Prava vs. Placebo Odds Ratio, 0 Rare Alleles [3]: 0.57
Prava vs. Placebo Odds Ratio, 1 Rare Alleles [3]: 0.75
Prava vs. Placebo Odds Ratio, 2 Rare Alleles [3]: 2.07
Prava vs. Placebo Odds Ratio, 0 Rare Alleles [4]: 0.71
Prava vs. Placebo Odds Ratio, 1 Rare Alleles [4]: 0.74
Prava vs. Placebo Odds Ratio, 2 Rare Alleles [4]: 1.79
Prava vs. Placebo Odds Ratio, 0 Rare Alleles [5]: 0.70
Prava vs. Placebo Odds Ratio, 1 Rare Alleles [5]: 0.74
Prava vs. Placebo Odds Ratio, 2 Rare Alleles [5]: 1.77
Prava vs. Placebo Odds Ratio, 0 Rare Alleles [6]: 0.72
Prava vs. Placebo Odds Ratio, 1 Rare Alleles [6]: 0.76
Prava vs. Placebo Odds Ratio, 2 Rare Alleles [6]: 2.25
Fatal CHD/Definite Non-fatal MI, n/total (%) (HLA-DPB1 hCV25651174, 0 Rare Alleles, n/total 58/733): (7.9%)
Non-fatal MI (def & prob), n/total (%) (HLA-DPB1 hCV25651174, 0 Rare Alleles, n/total 63/733): (8.6%)
Fatal/Non-fatal MI (def & prob), n/total (%) (HLA-DPB1 hCV25651174, 0 Rare Alleles, n/total 65/733): (8.9%)
Coronary Artery Bypass or Revascularization, n/total (%) (HLA-DPB1 hCV25651174, 0 Rare Alleles, n/total 103/733): (14.1%)
Total Coronary Heart Disease Events, n/total (%) (HLA-DPB1 hCV25651174, 0 Rare Alleles, n/total 207/733): (28.2%)
Fatal/Non-fatal Atherosclerotic CV Disease, n/total (%) (HLA-DPB1 hCV25651174, 0 Rare Alleles, n/total 230/733): (31.4%)
Hosp. for Cardiovascular Disease, n/total (%) (HLA-DPB1 hCV25651174, 0 Rare Alleles, n/total 282/733): (38.5%)
Total Cardiovascular Disease Events, n/total (%) (HLA-DPB1 hCV25651174, 0 Rare Alleles, n/total 291/733): (39.7%)
Non-fatal MI (def & prob), n/total (%) (HLA-DPB1 hCV25651174, 1 Rare Allele, n/total 55/632): (8.7%)
Fatal/Non-fatal MI (def & prob), n/total (%) (HLA-DPB1 hCV25651174, 1 Rare Allele, n/total 61/632): (9.7%)
Fatal CHD/Definite Non-fatal MI, n/total (%) (HLA-DPB1 hCV25651174, 1 Rare Allele, n/total 62/632): (9.8%)
Coronary Artery Bypass or Revascularization, n/total (%) (HLA-DPB1 hCV25651174, 1 Rare Allele, n/total 87/632): (13.8%)
Total Coronary Heart Disease Events, n/total (%) (HLA-DPB1 hCV25651174, 1 Rare Allele, n/total 182/632): (28.8%)
Fatal/Non-fatal Atherosclerotic CV Disease, n/total (%) (HLA-DPB1 hCV25651174, 1 Rare Allele, n/total 218/632): (34.5%)
Hosp. for Cardiovascular Disease, n/total (%) (HLA-DPB1 hCV25651174, 1 Rare Allele, n/total 259/632): (41.0%)
Total Cardiovascular Disease Events, n/total (%) (HLA-DPB1 hCV25651174, 1 Rare Allele, n/total 265/632): (41.9%)
Non-fatal MI (def & prob), n/total (%) (HLA-DPB1 hCV25651174, 2 Rare Alleles, n/total 16/144): (11.1%)
Fatal CHD/Definite Non-fatal MI, n/total (%) [7]: (13.9%)
Fatal/Non-fatal MI (def & prob), n/total (%) [7]: (13.9%)
Coronary Artery Bypass or Revascularization, n/total (%) (HLA-DPB1 hCV25651174, 2 Rare Alleles, n/total 27/144): (18.8%)
Total Coronary Heart Disease Events, n/total (%) (HLA-DPB1 hCV25651174, 2 Rare Alleles, n/total 50/144): (34.7%)
Fatal/Non-fatal Atherosclerotic CV Disease, n/total (%) (HLA-DPB1 hCV25651174, 2 Rare Alleles, n/total 54/144): (37.5%)
Hosp. for Cardiovascular Disease, n/total (%) (HLA-DPB1 hCV25651174, 2 Rare Alleles, n/total 61/144): (42.4%)
